Measurements from ChEMBL document CHEMBL1123339, “Ligand-receptor interactions via hydrogen-bond formation. Synthesis and pharmacological evaluation of pyrrolo and pyrido analogues of the cardiotonic agent 7-hydroxycyclindole” (1986).

species on record: Felis catus; experiment: Compound was evaluated for positive inotropic activity in vitro on cat papillary muscle, expressed as the percent increase over base-line contractility at 1 x 10 e-4 M; format: functional

| SMILES | Increase [%] |
| --- | --- |
| CN(C)C1CCc2c(c3ccc4ncccc4c3n2C)C1 (stereo not given) | 69 |
| CN(C)C1CCc2[nH]c3c(ccc4ncccc43)c2C1 (stereo not given) | 80 |
| CN(C)C1CCc2[nH]c3cc(O)ccc3c2C1 (stereo not given) | 50 |
| CN(C)C1CCc2[nH]c3c(ccc4[nH]ccc43)c2C1 (stereo not given) | 15 |
| Nc1cc(-c2ccncc2)c[nH]c1=O [INAMRINONE] | 50 |
